# Where two headings read alike, the source gives them in different places. Non-standard residues stand in square brackets, D forms with d. Residues, ends and D or L forms follow the SMILES beside them. pGlu = O=C1CC[C@@H](C(=O)O)N1
# Experiments:
# [1] = test system: Female albino Sprague-Dowely rats; test: Cataract due to hypergalactosemic diet (in vivo experimental cataract model, slit lamp evaluation); conditions: rats on 50% galactose diet, 20 days; PGC 10% in buffer, one drop twice a day into the conjunctive sac
# From the text: Female albino Sprague-Dowely rats having an average weight of 70 g have been used. Said rats have been fed a diet consisting of 50% galactose and the remaining 50% standard rat food during a 20 days period. The animals have been divided in two groups: the first animal group has been administered PGC (10% in buffer) by instilling one drop twice a day into the conjuctive sac, both sides; the second group, consisting of control animals, has been administered buffer only.
# The conditions of the various eye sections : conjunctiva, cornea, interior chamber, lens and vitreous humor have been evaluated at the slit lamp. The examination has been carried out before the beginning of the treatment and then on the 5th, 10th, 15th and 20th day.
# Male albino Wistar rats = test: Cataract from tryptophan deficiency (in vivo experimental cataract model, slit lamp evaluation); conditions: rats on tryptophan-deficient diet, 30 days
# Procedure: Said rats have been fed a synthetic diet devoid of tryptophan for a 30 days period and divided in three groups: the first animal group has been administered PGC subcutaneously at a dosage of 1 mg/kg in buffer solution, the second group has been administered a 10 mg/kg doses, whilst the animals of the third group have been injected only buffer solution.
# The conditions of the various eye sections : conjunctiva, cornea, interior chamber, lens and vitreous humor have been evaluated at the slit lamp.
# Especially the localisation and the degree of lens opaqueness have been scrutinized and documented by means of photographs.
# It was possible to observe opaqueness predominantly at the level at the posterior capsule and there was also evidence of an initial sclerosis of the nucleus. No further alterations either at the level of the anterior segment or of the posterior segment have been observed.
# male New-Zealand rabbits [2] = test: Toxicity (systemic tolerability) after intraperitoneal injection; format: in vivo
# Procedure: The systemic tolerability of PGC has been studied also after acute administration by means of intraperitoneal injection.
# 10 rabbits have received the substance (400 mg/kg) injected intraperitoneally.
# 24 hours after the administration of the product, the following examination have been carried out on urine and blood: • blood cell (red and white) count • determination of glycemia and acotemia; • evaluation of SGOT and SGPT transaminases
# male New-Zealand rabbits [3] = conditions: rabbit, in vivo
# rat lenses = test: Experimental model of in vitro cataract (isolated lenses incubated in high-glucose culture broth); format: cell-based, rats; conditions: lenses treated with PGC 1M; 55.5 mM glucose
# Procedure: Male albino Wistar rats having an average weight of 180 g have been used. After decapitation, both eye bulbs have been enucleated and the lenses have been removed from the back. The isolated lenses have been incubated at 37°C during 5 days in culture broth 199 containing 15% of foetal bovine serum (Laboratorio Gebco) and a 55.5 mM concentration of glucose. PGC has been added at a 1M concentration into the culture broth of only some lenses. The observations have been carried out at the 3rd and 5th day with the use of a stereo microscope and a Nikon camera with annular flash.
# It can be observed that in the control lenses the opaqueness development begins after only 72 hours of incubation and is complete after 120 hours. In the lenses treated with PGC low levels of opaqueness can not be observed before 120 hours of treatment.
compound,measurement,setting,value
"O=C1CC[C@@H](C(=O)N[C@@H](CS)C(=O)O)N1 [PGC, L-pyroglutamyl-L-cysteine] ([pGlu]-Cys-OH)",effect on the formation of lens opaqueness,[1],protective effect
same,percent of opaque lenses as a whole in the treated animals relative to the controls,[1],60%
same,lens opaqueness,Male albino Wistar rats; PGC 1 mg/kg subcutaneously,perfectly transparent
same,lens opaqueness,Male albino Wistar rats; PGC 10 mg/kg subcutaneously,perfectly transparent
same,changes of the hematological or hematochemical constants or of the urine composition,"male New-Zealand rabbits [2]; PGC 400 mg/kg intraperitoneally, 24 hours after administration, urine and blood examination",not shown any changes
same,growth modification relative to control animals,male New-Zealand rabbits [2]; PGC intraperitoneally,No growth modification
same,BODY WEIGHT INCREASE (KG) ON DAY 0,"male New-Zealand rabbits [2]; PGC intraperitoneally (400 mg/kg), day 0 (baseline), average ± SD, n=10",1.45 ± 0.05 kg
same,BODY WEIGHT INCREASE (KG) ON DAY 20,"male New-Zealand rabbits [2]; PGC intraperitoneally (400 mg/kg), day 20, average ± SD, n=10",2.25 ± 0.08 kg
same,BODY WEIGHT INCREASE (KG) ON DAY 0,male New-Zealand rabbits [3],1.60 ± 0.08 kg
same,BODY WEIGHT INCREASE (KG) ON DAY 20,male New-Zealand rabbits [3],2.34 ± 0.12 kg
same,changes of the hematological or hematochemical constants or of the urine composition,male New-Zealand rabbits [3],not shown any changes
same,growth modification relative to control animals,male New-Zealand rabbits [3],No growth modification
same,time before low levels of opaqueness can be observed,rat lenses,≥ 120 h

# From patent publication EP0332946B1, “The dipeptide L-pyroglutamyl-L-cysteine, having a high anti-cataractogenic activity, and pharmaceutical compositions containing the same” (S.I.F.I. Società Industria Farmaceutica Italiana S.p.A., priority 1988, dated 1993)
